This note sets out measurements from US8580775B2, “Use of derivatives of sinapinic acid and compositions comprising such derivatives” (Cognis IP Management GmbH, priority 2007, dated 2013).

This series relates to Melanocytes (B16 cell line). Briefly: Melanogenesis Inhibition Assay. The series is classed as cell-based. The note with it: for Protein level (rate of cellular proteins) / Melanin level: B16 melanocytes, 3 days incubation, mean +/− SEM; for Protein level (rate of cellular proteins): Bradford's method; for Melanin level: optical density at 475 nm. As to the method:
Melanocytes (B16 cell line) were inoculated in standard medium of cell culture with foetal calf serum (FCS). After an incubation of 3 days at 37° C. under 5% CO2, growth medium was exchanged for standard medium with a range of concentrations for each compound to be tested and a control without ingredient. After an incubation of 3 days, the level of melanin was measured by recording the optical density at 475 nm. After washing the cells with a balanced salt buffer, and homogenisation in a solution of 0.1 M NaOH, the number of viable cells was determined by evaluation of the level of cellular proteins (Bradford's method).
The results are expressed in % against control (cell culture medium without compound) as a mean+/−SEM (Standard Error of Mean) on 2 or 3 assays, each in triplicate.

In the case of `COc1cc(/C=C/C(=O)O)cc(OC)c1OC(C)=O` [example 1, 3,5-dimethoxy-4-acetoxy-cinnamic acid], the “Protein level (rate of cellular proteins)” value (“Protein level” below) reads like this: (dose 0.0003 % (w/v)) 100 +/− 1 %/control; (dose 0.001 % (w/v)) 95 +/− 1 %/control; (dose 0.003 % (w/v)) 93 +/− 3 %/control; (dose 0.01 % (w/v)) 81 +/− 10 %/control. Further, the Melanin level (dose 0.0003 % (w/v)) is 86 +/− 2 %/control, the Melanin level (dose 0.001 % (w/v)) is listed as 67 +/− 2 %/control, the Melanin level (dose 0.003 % (w/v)) is given as 26 +/− 1 %/control and the Melanin level (dose 0.01 % (w/v)) was 19 +/− 2 %/control. The cell toxicity result (summary in words of Table 3) is reported as “without cell toxicity”. Moreover, the “rate of melanin synthesis in melanocytes” value (summary in words of Table 3) is reported as “decreased”.

`CCOC(=O)/C(=C/c1cc(OC)c(O)c(OC)c1)C(C)=O` [example 2]: for the setting “dose 0.001 % (w/v)”, the “Protein level” value was 110 +/− 10 %/control and the Melanin level is on record as 108 +/− 3 %/control. Where the note is “dose 0.003 % (w/v)”, the “Protein level” value is listed as 123 +/− 9 %/control and the Melanin level is 54 +/− 6 %/control. For the same compound, the cell toxicity result (summary in words of Table 3) is on record as “without cell toxicity”.
